“Also recorded” adds a separate entry of the source. Where two headings read alike, the source gives them in different places.
Columns and labels:
HCT-116 colon carcinoma = assay: Cytotoxicity against solid tumor cells, CCK-8, 72 hrs (Table 4); type: cell-based; conditions: Homo sapiens
Method: (§1) Compounds are also evaluated against A-549 lung carcinoma and SK-OV-3 ovarian adenocarcinoma cell lines using the methodology as for Table 3. The potency order for the compounds may vary in different tumor cell lines. […] Absorbance was measured using a Powerwave XS microplate spectrophotometer.

MX-1 mammary carcinoma = assay: as above; type: cell-based; conditions: Homo sapiens
Method: as §1

A-549 lung carcinoma = assay: Cytotoxicity against solid tumor cells (Table 4); type: cell-based; conditions: Homo sapiens, A549, CCK-8, 72 hrs
Method: as §1

[1] = test system: SK-OV-3 ovarian adenocarcinoma; assay: Cytotoxicity against solid tumor cells (Table 4); type: cell-based; conditions: Homo sapiens, CCK-8, 72 hrs
Method: as §1

[2] = test system: human colon carcinoma HCT-116 xenografts; conditions: mouse, in vivo
[3] = test system: human mammary carcinoma MX-1 cells; assay: In vitro drug combination (median-effect / combination index, DRI) against MX-1 cell growth (Tables 5, 5A); type: cell-based
Method: The data in Tables 2X, 3A-E, 4, 5, and 6 were obtained using the cell counting kit-8 (CCK-8) tetrazolium assay in a 96-well microplate. Five to seven concentrations of each compound in triplicate were used, and the IC50 values were determined by CompuSyn software automation (Chou T C. and Martin N. ComboSyn, Inc., 2006) based on the median-effect equation and plot (Chou T C. J. Theor. Biol. 59:235-276, 1976; Chou T C. Pharmacol. Rev. 58: 621-681, 2006). […] The r value defines the correlation coefficient of the median-effect plot which signifies the conformity to the mass-action law principle (Chou T C. J. Theor. Biol. 59:235-276, 1976; Chou T C. Pharmacol. Rev. 58:621-681, 2006). These parameters were determined by CompuSyn simulation (available at http://www.combosyn.com).
Efficacy of panaxytriol in combination with Fludelone (an illustrative tubulin-binding anticancer agent) was measured according to procedures described in more detail by Chou et al. (1984) Adv. Enz. Regul., 22:27-55, Chou et al. (1994) Nat'l Cancer Inst., 86:1517-1524, and Chou (2006) Pharmacological Reviews, […]:621-681. Software packages used for data analyses were CalcuSyn for Windows (Chou and Hayball., Multiple-drug dose effect analyzer and manual, Biosoft, Cambridge Place, Cambridge, U.K (1996)) and CompuSyn for Drug Combinations (Chou and Martin, Software for determination of synergism and antagonism and determination of IC50, ED50 and LD50, ComboSyn Inc., Paramus, N.J. (2005)). The entire contents of each of the above references are incorporated by reference in their entireties. […] DRI quantitates synergy as how many fold less of a dose is required to obtain a given level of effect for a combination of drugs versus the same effect for an individual component of the combination.

[4] = test system: human lymphoblastic leukemic T-cell growth; assay: Cytotoxic activity relative to stability during storage at −20° C. in DMSO (Table 10); type: cell-based; conditions: Homo sapiens, CCRF-CEM, 72 h, XTT, 72 hr
[5] = test system: Rat pheochromocytoma cells (PC12 cells); assay: Neurite outgrowth with NGF; type: cell-based; conditions: 50 ng/mL NGF, 60 μM panaxytriol, 96 hr, vs NGF only
Method: Rat pheochromocytoma cells (PC12 cells) were treated with 50 ng/mL of nerve growth factor (NGF) and with 60 μM panaxytriol for 96 hr. The cells were then compared with a similarly prepared control, lacking panaxytriol. […] This finding confirms that panaxytriol is useful for treating or preventing a neurotrophic disorder.

[6] = test system: quinone reductase (NQO1) in Hepa 1c1c7 murine hepatoma cells; assay: Phase 2 enzyme inducer activity (Prochaska microtiter plate bioassay)
Method: Pure panaxytriol was dissolved in dimethyl sulfoxide. Phase 2 enzyme inducer activity was measured using a rapid assay of activity of representative phase 2 enzyme in a cell line. This assay was originally developed by Prochaska and colleagues as in Prochaska H J, Santamaria A B, Talalay P. “Rapid detection of inducers of enzymes that protect against carcinogens.” Proc Natl Acad Sci US A 1992; 89:2394-2398, and has been further refined as in Fahey J W, Dinkova-Kostova A T, Stephenson K K, Talalay P. “The “Prochaska” microtiter plate bioassay for inducers of NQO1.” Methods Enzymol. 2004; 382:243-258, each of which are incorporated by reference in its entirety. Briefly, Hepa 1c1c7 murine hepatoma cells were grown in 96-well microtiter plates. Serial dilutions of the extracts or compounds which were assayed were added into the wells. After 48 hours, the cells were lysed and the activity of quinone reductase (NQO1) was assayed by the addition of a reaction mixture containing an NADPH-generating system, menadione and MTT. NQO1 catalyzes the reduction of menadione to menadiol by NADPH, and MTT is reduced nonenzymatically by menadiol, resulting in the formation of a blue color that can then be quantitated as in Prochaska H J, Santamaria A B. “Direct measurement of NAD(P)H:quinone reductase from cells cultured in microtiter wells: a screening assay for anticarcinogenic enzyme inducers.” Anal. Biochem. 1988; 169:328-336, which is incorporated by reference in its entirety. […] NQO1 activity and protein content of the lysate were measured in duplicate plates with an optical microtiter plate absorbance reader. […] One unit of inducer activity is defined as the amount that, when added to a single microtiter well, doubles the NQO1 specific activity. Sulforaphane and β-naphthoflavone were used as positive controls in each bioassay. […] NQO1 inducer activity was assayed as described herein, and is reported here as treated/control at different concentrations of ginseng extract or component per well. […] (+) Panaxytriol (molecular weight […]), (Δ) Protopanaxatriol (molecular weight 461), (◯) Korean red SUN GINSENG® extract. The reductase assay can also be performed as disclosed in PCT Publication No. WO 06/023821, the entire contents of which are hereby incorporated in the instant application.

[7] = Table 5, fold dose reduction allowed in the Panaxytriol + Fludelone combination

Question: `C=C[C@H](O)C#CC#CC[C@H]1OC(C)(C)O[C@@H]1CCCCCCC` [Compound (D)] was tested. Which IC50 (HCT-116 colon carcinoma) did it give?
Answer: Its IC50 is 0.617 µM.

Question: What about the IC50 (MX-1 mammary carcinoma) of the same compound?
Answer: The IC50 was 5.32 µM.

Question: And the IC50 (A-549 lung carcinoma)?
Answer: Its IC50 is 2.85 µM.

Question: What about the IC50 [1] of the same compound?
Answer: Its IC50 is 5.08 µM.

Question: And the “effect of co-administration on iso-oxazole-fludelone toxicity (body weight)” value [2]?
Answer: Its value is “significantly reduces iso-oxazole-fludelone toxicity”.

Question: And the “body weight retention during Isodehydelone treatment” value ([2]; po)?
Answer: The value was “retained their body weight significantly better”.

Question: For `C=C[C@@H](O)C#CC#CC[C@@H](O)[C@H](O)CCCCCCC` [panaxytriol], which IC50 ([3]; Homo sapiens, MX1, 72 h, read-out: Dose-effect parameter Dm (IC50)) is on record?
Answer: The IC50 was 3.19 µM.

Question: What about the “Dose-Reduction Index (DRI) at IC50” value [3, 7] of the same compound?
Answer: The value was 2.66.

Question: What about the “Dose-Reduction Index (DRI) at IC75” value [3, 7] of the same compound?
Answer: The value was 2.12.

Question: And the “Dose-Reduction Index (DRI) at IC90” value [3, 7]?
Answer: The value was 1.70.

Question: And the “Dose-Reduction Index (DRI) at IC95” value [3, 7]?
Answer: The value was 1.46.

Question: And the “dose-reduction index (DRI)” value ([3]; panaxytriol + Fludelone combination, MX-1 cells)?
Answer: Its value is 1.46-2.7.

Question: And the IC50 ([4]; read-out: IC50 in μM CCRF-CEM, Table 10, Aug. 22, 2003 (Stored), same solution kept at −20° C. in DMSO)?
Answer: The IC50 was 11 µM.

Question: What about the IC50 ([4]; read-out: IC50 in μM CCRF-CEM, Table 10, Jul. 25, 2003 (Fresh)) of the same compound?
Answer: The IC50 was 6.34 µM.

Question: And the IC50 ([4]; read-out: IC50 in μM CCRF-CEM/VBL, Table 10, Aug. 22, 2003 (Stored), same solution kept at −20° C. in DMSO)?
Answer: The IC50 was 19.4 µM.

Question: And the IC50 ([4]; read-out: IC50 in μM CCRF-CEM/VBL, Table 10, Jul. 25, 2003 (Fresh))?
Answer: The IC50 was 4.71 ± 0.73 µM.

Question: What about the neurite outgrowth [5] of the same compound?
Answer: Its neurite outgrowth is “enhanced neurite outgrowth; also recorded: significant neurite outgrowth”.

Question: And the “potency as an inducer relative to protopanxadiol or protopanaxatriol” value [6]?
Answer: The value was “over 10 fold”.

Question: What about the “significant cytotoxicity observed above” value ([6]; Hepa 1c1c7 cells) of the same compound?
Answer: Its value is “above 0.5 μg/well”.

Question: And the inducer potency ([6]; NQO1)?
Answer: Its inducer potency is 5,760,000 U/g.

Question: What about the “concentration of doubling (CD), average” value ([6]; NQO1, 48 hours) of the same compound?
Answer: The value was 3.85 µM.

— patent publication US8859615B2, “Compounds, compositions and methods for reducing toxicity and treating or preventing diseases” (priority 2008, dated 2014)
